{"source": "paper PMC5807063", "about": "(Science (New York, N.Y.), 2017)", "key": {"[1]": {"biological_target": "T1, HNE in CF patient sputum (Homo sapiens, UniProt P08246)", "T1 sequence (P08246 30-267)": "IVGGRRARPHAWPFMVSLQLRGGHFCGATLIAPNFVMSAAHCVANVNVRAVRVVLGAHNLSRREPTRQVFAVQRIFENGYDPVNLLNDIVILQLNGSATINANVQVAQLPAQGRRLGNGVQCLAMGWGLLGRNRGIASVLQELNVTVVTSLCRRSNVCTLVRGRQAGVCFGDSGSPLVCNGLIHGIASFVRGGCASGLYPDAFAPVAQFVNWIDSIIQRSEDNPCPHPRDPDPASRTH", "assay": "HNE inhibition in CF patient sputum", "details": "sputum samples of CF patients"}, "[2]": {"biological_target": "T2, purified HNE (human neutrophil elastase) (Homo sapiens, UniProt P08246)", "T2 sequence (P08246 30-267)": "T1 sequence (P08246 30-267)", "assay": "Inhibition of purified human neutrophil elastase"}}}
{"substance": "BAY 85-8501 [compound 54]", "values": [{"measurement": "inhibitory activity in CF patient sputum (in words)", "setting": "[1]", "result": "potencies diminished"}, {"measurement": "HNE inhibitory activity (in words)", "setting": "[2]", "result": "low IC50 values"}]}
